# Experimental data reported in patent publication US20080070265A1, “PEPTIDE-BASED IMMUNIZATION THERAPY FOR TREATMENT OF ATHEROSCLEROSIS” (CARDIO VAX, priority 2003, published 2008).
# System: apoE−/− mice
# Test: Immunization of apoE−/− mice with peptide in Freund's adjuvant; size of atherosclerotic lesions in the proximal aorta
# Assay type: in vivo
# Conditions: for effect of immunization on atherosclerosis: experimental animals (apoE−/− mice)
# Experimental: It was hypothesized that the induction of protective immunity could depend on presentation of peptides derived from apoB100 and modified by adduct formation during oxidative modification of the LDL particle. Further, it was hypothesized that such peptides must have a sequence that (i) contains side chains susceptible to adduct formation, and (ii) permits them to bind to MHC class II molecules. The apoB100 sequence was analyzed to identify such motifs. […] A peptide containing this sequence was synthesized and used for immunization of apoE−/− mice. The effect on atherosclerosis was quantified by measuring the size of atherosclerotic lesions after 12 weeks.
# 8 week old female apoE−/− mice (B6, Apoe−/−, M&B, Ry, Denmark) were immunized with 100 μg of peptide SEQ. ID. NO. 1, and SEQ. ID. NO. 2, respectively, emulsified with Freund's complete adjuvant to a total volume of 50 μl. Mice were boosted after 2 and 4 weeks with 50 μg of peptide in Freund's incomplete adjuvant. A third group of mice consisting of age-matched male mice was injected according to the same scheme with phosphate-buffered saline (PBS) in adjuvant. 4 weeks after the last boost, mice were anesthetized with carbon dioxide and killed by exsanguination after cardiac puncture. After vascular perfusion with sterile RNase-free PBS, the heart and proximal aorta were removed, embedded in OCT compound, frozen and cryosectioned.
# The size of atherosclerotic lesions in the proximal aorta was quantified by using Leica Qwin software (for details of the method, see Nicoletti et al., J. Clin. Invest. (1998)) Results were expressed as μm^2 average lesion area per cross-section, as well as relative lesion area, i.e., lesion area (μm^2) divided by total aortic cross-section area (μm^2). The Mann-Whitney U test used for comparisons between means.
Substance,effect of immunization on atherosclerosis,"lesions larger than PBS controls (female apoE−/− mice, same immunization scheme, proximal aorta, p<0.05) [%]","lesion size versus control mice injected with PBS/adjuvant alone (apoE−/− mice, FIG. 1)","lesion size versus mice immunized with peptide SEQ. ID. NO. 2 (apoE−/− mice, FIG. 1)","reduction in lesion size compared to PBS controls (female apoE−/− mice, 100 μg peptide in Freund's complete adjuvant, boosts of 50 μg after 2 and 4 weeks, proximal aorta, p<0.05) [%]","reduction in lesion size compared with peptide SEQ. ID. NO. 2 immunized mice (female apoE−/− mice, same immunization scheme, proximal aorta, p<0.001) [%]"
NH2-YSKVHNGSEILFSYFQDLVIT-COOH (H-YSKVHNGSEILFSYFQDLVIT-OH) [SEQ. ID. NO. 2],aggravates atherosclerosis,36,,,,
"NH2-PTVMDFRKFSRNYQLYKSVSLPS-COOH (H-PTVMDFRKFSRNYQLYKSVSLPS-OH) [SEQ. ID. NO. 1, amino acids 625-647 of the human apoB100 protein]",inhibition of atherosclerosis,,significantly smaller lesions,significantly smaller,42,62
